Series [1] addresses T1, Rat NPY5 receptor (Rattus norvegicus, UniProt Q63634).
T1 sequence (Q63634 1-445): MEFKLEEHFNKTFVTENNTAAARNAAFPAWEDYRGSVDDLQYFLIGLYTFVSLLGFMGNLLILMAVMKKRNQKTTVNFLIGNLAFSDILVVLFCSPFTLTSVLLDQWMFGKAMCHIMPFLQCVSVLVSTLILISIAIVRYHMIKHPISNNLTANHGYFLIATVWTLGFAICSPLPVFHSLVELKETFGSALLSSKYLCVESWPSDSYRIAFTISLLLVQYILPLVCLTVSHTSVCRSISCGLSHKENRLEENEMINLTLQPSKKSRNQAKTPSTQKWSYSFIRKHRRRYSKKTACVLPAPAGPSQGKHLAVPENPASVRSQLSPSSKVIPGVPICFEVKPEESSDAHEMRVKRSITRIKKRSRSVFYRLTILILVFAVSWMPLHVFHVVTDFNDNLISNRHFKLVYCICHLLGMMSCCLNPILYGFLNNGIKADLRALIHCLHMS
The experiment in a line: Rat NPY5 cyclase assay (in vitro functional assay, forskolin-stimulated adenylate cyclase, cAMP). It is filed as cell-based. Conditions: 10 μM; percentage of forskolin-stimulated adenylate cyclase. The procedure:
D. Rat NYP5 Cyclase Assay (In Vitro Functional Assay)
Cells stably expressing the rat NPY5 receptor are resuspended in serum-free DMEM containing 10 mM HEPES (pH 7.4) and 1 mM isobutylmethylxanthine (IBMX). […] forskolin and drug dilution are then added to the cells. After a 20 minute incubation of the samples at 37° C, the assay is stopped by placing the samples in boiling water for 3 minutes. The cAMP produced in each sample is quantitated with a radioimmunoassay kit (NEN DuPont). Data are expressed as a percentage of forskolin-stimulated adenylate cyclase.

A further series deals with T2, Human NPY5 receptor (Homo sapiens, UniProt Q15761).
T2 sequence (Q15761 1-445): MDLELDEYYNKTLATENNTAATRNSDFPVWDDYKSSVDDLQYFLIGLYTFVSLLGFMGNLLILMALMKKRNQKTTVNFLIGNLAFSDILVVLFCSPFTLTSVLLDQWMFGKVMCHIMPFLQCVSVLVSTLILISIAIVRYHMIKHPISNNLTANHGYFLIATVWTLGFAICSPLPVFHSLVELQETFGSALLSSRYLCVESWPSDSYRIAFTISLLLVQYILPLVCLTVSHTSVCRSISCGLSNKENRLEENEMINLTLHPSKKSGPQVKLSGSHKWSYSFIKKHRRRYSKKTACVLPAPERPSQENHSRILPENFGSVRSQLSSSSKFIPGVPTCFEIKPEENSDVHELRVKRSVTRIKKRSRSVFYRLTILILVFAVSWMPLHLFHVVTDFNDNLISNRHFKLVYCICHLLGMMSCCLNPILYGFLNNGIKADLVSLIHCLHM
Nature of the series: Human NPY5 receptor binding assay ([125I]PYY, membrane protein). The method in brief:
(§1)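 Membrane protein was incubated with 75-100 pM porcine [125I]PYY and test compound for 2 hours at room temperature with constant mixing in pH 7.4 Tris buffer containing NaCl, KCl, CaCl2, MgSO4, 0.1% BSA and bacitracin. Nonspecific binding was defined with 1 μM PYY. Bound radioactivity was counted after filtration.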

The next series deals with human Y4/PP1 receptor (Homo sapiens, UniProt P50391). Nature of the series: Human Y4/PP1 receptor binding assay ([125I]human PP, membrane protein). To be noted: [125I]human PP, membrane protein; read-out: hNPY4 IC50. The method in brief: (§2)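 Filtration binding with membrane protein and drug dilution, 2 h at room temperature with mixing, radioactivity counted by gamma or scintillation. Y2: 25 pM [125I]PYY in Krebs-Ringer bicarbonate pH 7.4 with 0.01% BSA, nonspecific by 1 μM NPY. Y4/PP1: 50 pM [125I]hPP in HEPES-buffered saline pH 7.4 with protease inhibitors and 0.3% BSA, nonspecific by 1 μM hPP.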
human Y4/PP1 receptor, sequence (P50391 whole entry): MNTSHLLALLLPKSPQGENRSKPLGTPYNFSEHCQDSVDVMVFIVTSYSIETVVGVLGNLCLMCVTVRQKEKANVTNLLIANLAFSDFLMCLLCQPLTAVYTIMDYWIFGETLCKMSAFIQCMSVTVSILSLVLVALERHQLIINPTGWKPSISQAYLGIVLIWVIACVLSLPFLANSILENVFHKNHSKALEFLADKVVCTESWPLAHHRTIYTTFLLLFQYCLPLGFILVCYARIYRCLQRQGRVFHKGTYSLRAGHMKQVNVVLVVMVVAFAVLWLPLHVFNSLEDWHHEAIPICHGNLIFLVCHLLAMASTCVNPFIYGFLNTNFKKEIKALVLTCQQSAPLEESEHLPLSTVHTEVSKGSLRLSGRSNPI

The next series deals with T3, Human NPY1 receptor (Homo sapiens, UniProt P25929).
T3 construct: host or cells: SK-N-MC cells
T3 sequence (P25929 1-384): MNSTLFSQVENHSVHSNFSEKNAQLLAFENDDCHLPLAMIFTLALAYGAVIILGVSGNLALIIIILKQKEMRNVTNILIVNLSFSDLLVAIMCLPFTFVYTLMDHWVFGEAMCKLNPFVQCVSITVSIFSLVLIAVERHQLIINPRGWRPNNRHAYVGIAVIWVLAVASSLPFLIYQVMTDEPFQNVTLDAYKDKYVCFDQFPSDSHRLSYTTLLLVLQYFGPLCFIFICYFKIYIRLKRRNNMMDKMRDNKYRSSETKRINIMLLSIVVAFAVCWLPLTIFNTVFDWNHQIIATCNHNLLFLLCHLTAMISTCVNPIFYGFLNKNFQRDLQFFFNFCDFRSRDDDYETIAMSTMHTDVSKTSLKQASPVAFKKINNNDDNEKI
The experiment in a line: Human NPY1 receptor binding assay ([125I]PYY, SK-N-MC cells). To be noted: [125I]PYY, SK-N-MC cells; read-out: hNPYI IC50. The method in brief:
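Confluent SK-N-MC cells preincubated 30 min at room temperature in serum-free DMEM/25 mM HEPES pH 7.3 with BSA, bacitracin and PMSF, then incubated 3 h at room temperature with compound and ~50 pM [125I]PYY. Nonspecific binding defined with 1 μM NPY; bound radioactivity counted after Triton X-100 lysis.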

Series [2] addresses T1, Rat NPY5 receptor. The experiment in a line: Rat NPY5 receptor binding assay ([125I]PYY, membrane protein). An outline of the steps: as §1
In a further series the target is T4, Y2 receptor (Homo sapiens, UniProt P49146).
T4 sequence (P49146 1-381): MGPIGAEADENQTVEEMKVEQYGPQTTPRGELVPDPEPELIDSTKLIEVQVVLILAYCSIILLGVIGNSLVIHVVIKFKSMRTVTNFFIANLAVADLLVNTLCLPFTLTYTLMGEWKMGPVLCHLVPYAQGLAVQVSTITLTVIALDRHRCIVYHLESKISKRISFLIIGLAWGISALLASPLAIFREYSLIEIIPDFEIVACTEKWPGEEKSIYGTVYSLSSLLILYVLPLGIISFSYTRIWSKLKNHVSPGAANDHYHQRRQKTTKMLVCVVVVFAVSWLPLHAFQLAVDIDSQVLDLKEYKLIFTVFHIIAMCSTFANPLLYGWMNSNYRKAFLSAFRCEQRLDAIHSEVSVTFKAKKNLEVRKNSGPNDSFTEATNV
The experiment in a line: Y2 receptor binding assay ([125I]PYY, membrane protein). To be noted: [125I]PYY, membrane protein; read-out: hNPY2 IC50. An outline of the steps: as §2

[3] abbreviates: [125I]PYY, read-out: hNPY5 IC50.
Where [4] appears, read: [125I]PYY, read-out: rNPY5 IC50.

Like-named read-outs stand apart in the source and are kept apart here.

Take `Cl.O=C(CN1CCC(n2c(=O)[nH]c3ccccc32)CC1)Nc1ccc(C(=O)C(=O)c2ccccc2)cc1` [Compound 265]: on Rat NPY5 receptor [1], the “rNPY5 % FSAC (10 μM)” value is 90%.
For the compound `CC(C(=O)Nc1ccc(C2CCCCC2)cc1)N1CCC(n2c(=O)[nH]c3ccccc32)CC1` (stereo not shown) [Compound 278, N-(4-Cyclohexyl-phenyl)-2-[4-(2-oxo-2,3-dihydro-benzoimidazol-1-yl)-piperidin-1-yl]-propionamide], the melting point (commonly the temperature of the solid-liquid transition) is 148 to 150 °C. The IC50 (as a rule, the concentration at which inhibition is half-maximal) at Human NPY5 receptor (setting [3]) worked out at 0.028 µM. Moreover, on human Y4/PP1 receptor, the IC50 is over 5 µM. In addition, the IC50 on Human NPY1 receptor is over 5 µM. At Rat NPY5 receptor [2] (setting [4]), the IC50 came to 0.012 µM. Also, the IC50 on Y2 receptor was over 5 µM.
The compound `CC(C(=O)Nc1ccc(C(C)(C)C)cc1)N1CCC(n2c(=O)[nH]c3ccccc32)CC1` (stereo not shown) [Compound 279] yielded a melting point of 144 to 148 °C. Besides, the IC50 on Human NPY5 receptor (setting [3]) amounted to 0.13 µM. For the same compound, the IC50 at human Y4/PP1 receptor was over 5 µM. In addition, the half-inhibitory concentration (IC50) on Human NPY1 receptor is over 5 µM. Besides, the IC50 at Rat NPY5 receptor [2] (setting [4]) turned out to be 0.068 µM. In addition, the IC50 on Y2 receptor was over 5 µM.
Compound `CC(C)N(CCNC(=O)CN1CCC(n2c(=O)[nH]c3ccccc32)CC1)C(C)C` [Compound 281, N-(2-Diisopropylamino-ethyl)-2-[4-(2-oxo-2,3-dihydro-benzoimidazol-1-yl)-piperidin-1-yl]-acetamide] came in with a melting point of 195 to 196 °C. The IC50 at Human NPY5 receptor (setting [3]) is over 10 µM. Moreover, on human Y4/PP1 receptor, the IC50 is over 5 µM. Moreover, the IC50 on Human NPY1 receptor was over 5 µM. Further, the IC50 at Rat NPY5 receptor [2] (setting [4]) was over 10 µM. In addition, the 50% inhibitory concentration (IC50) at Y2 receptor is over 5 µM.
On to `Cl.O=C(CN1CCC(n2c(=O)[nH]c3ccccc32)CC1)NCC1CCCCC1` [Compound 282, N-Cyclohexylmethyl-2-[4-(2-oxo-2,3-dihydro-benzoimidazol-1-yl)-piperidin-1-yl]-acetamide; hydrochloride], for which the melting point is 196 to 197 °C. Further, the half-maximal inhibitory concentration (IC50) on Human NPY5 receptor (setting [3]) was determined as 0.38 µM. At human Y4/PP1 receptor, the IC50 is over 5 µM. Also, the IC50 at Human NPY1 receptor is over 5 µM. At Rat NPY5 receptor [2] (setting [4]), the half-maximal inhibitory concentration (IC50) was found to be 0.313 µM. The IC50 at Y2 receptor is over 5 µM.
For `CC(C)OCCCNC(=O)CN1CCC(n2c(=O)[nH]c3ccccc32)CC1.Cl` [Compound 283, N-(3-Isopropoxy-propyl)-2-[4-(2-oxo-2,3-dihydro-benzoimidazol-1-yl)-piperidin-1-yl]-acetamide; hydrochloride], the melting point was in the range of 237 to 238 °C. In addition, the IC50 at Human NPY5 receptor (setting [3]) was over 10 µM. At human Y4/PP1 receptor, the IC50 is over 5 µM. Moreover, on Human NPY1 receptor, the IC50 was over 5 µM. For the same compound, the IC50 at Rat NPY5 receptor [2] (setting [4]) was over 10 µM. Further, the concentration for half-maximal inhibition (IC50) on Y2 receptor was over 5 µM.
As for `COCCNC(=O)CN1CCC(n2c(=O)[nH]c3ccccc32)CC1` [Compound 284, N-(2-Methoxy-ethyl)-2-[4-(2-oxo-2,3-dihydro-benzoimidazol-1-yl)-piperidin-1-yl]-acetamide], the melting point was in the range of 77 to 78 °C. The IC50 on Human NPY5 receptor (setting [3]) was over 10 µM. Moreover, the IC50 at human Y4/PP1 receptor was over 5 µM. At Human NPY1 receptor, the IC50 was over 5 µM. Besides, the 50% inhibitory concentration (IC50) on Rat NPY5 receptor [2] (setting [4]) was over 10 µM. Also, the IC50 at Y2 receptor was over 5 µM.
`CC(=O)NC1CCN(CC(=O)Nc2ccc(C3CCCCC3)cc2)C1.O=C(O)C(=O)O` (stereo not shown) [Compound 293, 2-(3-Acetylamino-pyrrolidin-1-yl)-N-(4-cyclohexyl-phenyl)-acetamide; compound with oxalic acid] gave a melting point of 122 °C. Also, the IC50 on Human NPY5 receptor (setting [3]) came to 0.19 µM. Also, the 50% inhibitory concentration (IC50) at human Y4/PP1 receptor was over 5 µM. Besides, at Human NPY1 receptor, the IC50 was over 5 µM. Further, the IC50 on Rat NPY5 receptor [2] (setting [4]) was determined as 0.17 µM. Also, the IC50 on Y2 receptor was over 5 µM.
Take `Cl.O=C(CN1CCC(n2c(=O)[nH]c3ccccc32)CC1)Nc1ccc2c(c1)C(=O)c1ccccc1-2` [Compound 306, 2-[4-(2-Oxo-2,3-dihydro-benzoimidazol-1-yl)-piperidin-1-yl]-N-(9-oxo-9H-fluoren-2-yl)-acetamide; hydrochloride]: the melting point worked out at 204 °C. Also, on Human NPY5 receptor (setting [3]), the IC50 turned out to be 0.044 µM. Moreover, the IC50 on human Y4/PP1 receptor is over 5 µM. The IC50 at Human NPY1 receptor was over 5 µM. For the same compound, the IC50 on Rat NPY5 receptor [2] (setting [4]) was determined as 0.035 µM. In addition, at Y2 receptor, the IC50 is over 5 µM.
Compound `O=C(CN1CCC(n2c(=O)[nH]c3ccccc32)CC1)Nc1cccc2c1-c1ccccc1C2=O` [Compound 308, 2-[4-(2-Oxo-2,3-dihydro-benzoimidazol-1-yl)-piperidin-1-yl]-N-(9-oxo-9H-fluoren-4-yl)-acetamide] returned a melting point of 205 °C. In addition, on Human NPY5 receptor (setting [3]), the IC50 amounted to 0.36 µM. Besides, at human Y4/PP1 receptor, the IC50 is over 5 µM. Moreover, on Human NPY1 receptor, the IC50 was over 5 µM. The half-maximal inhibitory concentration (IC50) at Rat NPY5 receptor [2] (setting [4]) came out at 0.3 µM. Also, the IC50 at Y2 receptor was over 5 µM.
Regarding `Cl.O=C(CN1CCC(n2c(=O)[nH]c3ccccc32)CC1)Nc1ccc2oc3ccccc3c2c1` [Compound 310, N-Dibenzofuran-2-yl-2-[4-(2-oxo-2,3-dihydro-benzoimidazol-1-yl)-piperidin-1-yl]-acetamide; hydrochloride], the melting point was 186 °C. Further, the IC50 on Human NPY5 receptor (setting [3]) was determined as 0.034 µM. For the same compound, the IC50 at human Y4/PP1 receptor is over 5 µM. In addition, the IC50 at Human NPY1 receptor is over 5 µM. In addition, at Rat NPY5 receptor [2] (setting [4]), the IC50 came to 0.034 µM. The IC50 on Y2 receptor is over 5 µM.
`O=C(Nc1ccc(-c2ccccc2)cc1)C(c1ccccc1)N1CCC(n2c(=O)[nH]c3ccccc32)CC1` (stereo not shown) [Compound 312, N-Biphenyl-4-yl-2-[4-(2-oxo-2,3-dihydro-benzoimidazol-1-yl)-piperidin-1-yl]-2-phenyl-acetamide] had a melting point of 207 to 210 °C. The same compound registered an IC50 at Human NPY5 receptor (hNPY5 IC50, [125I]PYY) of 0.032 µM. In addition, the IC50 at human Y4/PP1 receptor is over 5 µM. The IC50 on Human NPY1 receptor is over 5 µM. Moreover, the IC50 on Rat NPY5 receptor [2] (rNPY5 IC50, [125I]PYY) worked out at 0.024 µM. The half-maximal inhibitory concentration (IC50) on Y2 receptor was over 5 µM.

These data come from US6410792B1, “Amide derivatives and methods for using the same as selective neuropeptide Y receptor antagonists” (Bayer Corporation, priority 1997, dated 2002).
